# Entries after “also recorded” stand apart in the source; their conditions may differ. Where two headings read alike, the source gives them in different places. Positions of bridges follow the written chain, without caps; N, C: chain ends. Residues, ends and D or L forms follow the SMILES beside them.
# What was measured:
# [1] = test system: Salmonella enterica serovar newport; details: cited from earlier work
# [2] = test system: Enterohemorrhagic Escherichia coli O157:H7 TUV-93-0; details: E. coli; cited from earlier work
# [3] = test system: Burkholderia multivorans ATCC 17616
# [4] = biological target: E. coli RNA polymerase (Escherichia coli, UniProt P0A8T7+P0A8V2); assay: in vitro abortive transcription initiation assay (RNAP inhibition); assay type: biochemical
# [5] = test system: Burkholderia gladioli ATCC 10248
# [6] = test system: B. mallei NVSL 86-567-2
# [7] = test system: Pseudomonas aeruginosa PAO1
# [8] = test system: B. cepacia ATCC 25416
# [9] = test system: Salmonella enterica serovar newport
# [10] = test system: B. mallei Old ISU
# [11] = thermostability analysis via LC-MS; details: heated to 95° C.; 2 h for the LC-MS sample
# [12] = test system: B. mallei Old ISU; remark: listed apart in the source
# [13] = test system: Burkholderia multivorans; assay type: cell-based
# [14] = test system: B. cepacia ATCC 25416; remark: listed apart in the source
# [15] = test system: B. multivorans ATCC 17616
# [16] = test system: Burkholderia thailandensis E264
# [17] = test system: B. pseudomallei; assay type: cell-based, Burkholderia pseudomallei
# [18] = test system: Burkholderia pseudomallei Bp82
# [19] = test system: B. mallei NVSL 86-567-2; remark: listed apart in the source
# [20] = test system: Enterohemorrhagic Escherichia coli O157:H7 TUV-93-0
# [21] = test system: Burkholderia pseudomallei 576mn
# [22] = test system: B. multivorans ATCC 17616; remark: listed apart in the source
# E. coli RNA polymerase, sequence (P0A8T7 whole entry): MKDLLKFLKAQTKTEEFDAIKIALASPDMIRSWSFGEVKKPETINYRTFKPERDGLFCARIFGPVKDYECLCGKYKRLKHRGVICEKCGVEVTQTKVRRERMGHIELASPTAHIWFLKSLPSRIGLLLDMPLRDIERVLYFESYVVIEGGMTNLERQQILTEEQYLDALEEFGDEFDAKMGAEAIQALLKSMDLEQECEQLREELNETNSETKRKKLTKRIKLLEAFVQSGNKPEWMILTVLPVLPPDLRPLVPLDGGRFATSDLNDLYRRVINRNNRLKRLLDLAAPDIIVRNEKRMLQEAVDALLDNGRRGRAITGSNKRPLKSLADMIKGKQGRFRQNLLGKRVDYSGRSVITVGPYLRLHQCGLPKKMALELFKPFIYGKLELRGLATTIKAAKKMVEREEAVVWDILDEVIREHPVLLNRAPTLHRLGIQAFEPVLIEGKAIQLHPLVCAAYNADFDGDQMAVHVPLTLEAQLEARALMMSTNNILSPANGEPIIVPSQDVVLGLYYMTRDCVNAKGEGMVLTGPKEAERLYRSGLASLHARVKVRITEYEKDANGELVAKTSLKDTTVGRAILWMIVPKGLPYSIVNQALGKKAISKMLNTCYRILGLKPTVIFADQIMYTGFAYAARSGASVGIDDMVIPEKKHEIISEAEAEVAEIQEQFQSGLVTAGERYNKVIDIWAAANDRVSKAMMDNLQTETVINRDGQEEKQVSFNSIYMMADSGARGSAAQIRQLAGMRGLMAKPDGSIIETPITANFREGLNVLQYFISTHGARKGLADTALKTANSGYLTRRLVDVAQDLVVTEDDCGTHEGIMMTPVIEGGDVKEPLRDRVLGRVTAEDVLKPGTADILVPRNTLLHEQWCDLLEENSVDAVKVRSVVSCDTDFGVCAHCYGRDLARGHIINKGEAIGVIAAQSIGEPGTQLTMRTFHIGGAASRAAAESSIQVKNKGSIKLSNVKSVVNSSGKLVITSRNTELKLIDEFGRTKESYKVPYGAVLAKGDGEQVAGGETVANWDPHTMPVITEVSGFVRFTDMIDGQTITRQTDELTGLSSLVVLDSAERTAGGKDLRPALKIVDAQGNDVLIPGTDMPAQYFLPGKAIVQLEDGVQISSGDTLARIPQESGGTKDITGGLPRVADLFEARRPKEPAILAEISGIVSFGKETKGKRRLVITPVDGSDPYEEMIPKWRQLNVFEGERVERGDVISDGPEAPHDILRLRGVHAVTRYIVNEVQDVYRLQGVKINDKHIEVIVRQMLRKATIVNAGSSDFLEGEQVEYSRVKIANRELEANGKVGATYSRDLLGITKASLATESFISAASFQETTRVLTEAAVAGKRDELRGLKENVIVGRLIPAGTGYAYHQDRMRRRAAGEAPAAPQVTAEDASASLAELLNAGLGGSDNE
# E. coli RNA polymerase, sequence (P0A8V2 whole entry): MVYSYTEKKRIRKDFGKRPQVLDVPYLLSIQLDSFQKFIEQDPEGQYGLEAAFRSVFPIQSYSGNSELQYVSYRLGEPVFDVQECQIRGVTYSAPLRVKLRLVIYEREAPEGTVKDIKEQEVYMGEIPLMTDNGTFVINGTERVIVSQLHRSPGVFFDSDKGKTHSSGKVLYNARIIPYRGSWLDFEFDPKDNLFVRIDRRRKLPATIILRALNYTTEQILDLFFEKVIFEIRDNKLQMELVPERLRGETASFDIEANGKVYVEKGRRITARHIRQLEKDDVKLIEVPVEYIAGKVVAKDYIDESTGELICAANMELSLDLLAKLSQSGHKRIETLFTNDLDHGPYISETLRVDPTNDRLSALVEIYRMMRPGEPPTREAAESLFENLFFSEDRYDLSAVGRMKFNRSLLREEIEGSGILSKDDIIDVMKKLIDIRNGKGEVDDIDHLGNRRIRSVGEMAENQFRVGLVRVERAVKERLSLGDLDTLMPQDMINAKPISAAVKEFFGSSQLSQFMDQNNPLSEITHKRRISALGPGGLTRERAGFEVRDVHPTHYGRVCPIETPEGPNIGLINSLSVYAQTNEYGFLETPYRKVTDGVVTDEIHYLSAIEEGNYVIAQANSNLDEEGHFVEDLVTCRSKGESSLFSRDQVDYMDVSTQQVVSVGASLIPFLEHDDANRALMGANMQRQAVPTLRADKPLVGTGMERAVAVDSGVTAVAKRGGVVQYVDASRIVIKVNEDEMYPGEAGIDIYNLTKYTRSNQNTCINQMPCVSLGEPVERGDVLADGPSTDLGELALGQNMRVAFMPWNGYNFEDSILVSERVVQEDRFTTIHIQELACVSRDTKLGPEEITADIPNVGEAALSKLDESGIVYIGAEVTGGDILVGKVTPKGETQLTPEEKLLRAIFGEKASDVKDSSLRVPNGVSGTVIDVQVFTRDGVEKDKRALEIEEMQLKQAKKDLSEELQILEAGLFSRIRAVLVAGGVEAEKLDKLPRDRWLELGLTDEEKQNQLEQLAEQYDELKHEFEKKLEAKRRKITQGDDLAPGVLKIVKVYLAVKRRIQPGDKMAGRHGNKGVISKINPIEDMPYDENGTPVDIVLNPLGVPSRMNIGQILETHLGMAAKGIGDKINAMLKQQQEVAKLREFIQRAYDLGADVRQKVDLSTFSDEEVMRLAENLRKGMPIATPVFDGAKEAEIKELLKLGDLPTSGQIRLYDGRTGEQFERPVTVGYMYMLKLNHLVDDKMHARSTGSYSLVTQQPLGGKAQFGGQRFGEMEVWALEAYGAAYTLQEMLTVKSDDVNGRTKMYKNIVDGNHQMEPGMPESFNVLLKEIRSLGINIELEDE
# E. coli RNA polymerase, sequence (P0A7Z4 whole entry, further chain): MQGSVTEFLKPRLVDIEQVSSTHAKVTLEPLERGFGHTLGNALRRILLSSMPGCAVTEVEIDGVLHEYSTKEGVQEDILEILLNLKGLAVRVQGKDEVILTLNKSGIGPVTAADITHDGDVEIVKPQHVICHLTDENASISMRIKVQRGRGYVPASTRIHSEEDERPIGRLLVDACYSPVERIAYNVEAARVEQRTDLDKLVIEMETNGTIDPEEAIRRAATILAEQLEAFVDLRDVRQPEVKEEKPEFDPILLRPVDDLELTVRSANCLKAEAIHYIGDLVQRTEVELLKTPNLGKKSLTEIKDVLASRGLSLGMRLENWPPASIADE
# E. coli RNA polymerase, sequence (P00579 whole entry, further chain): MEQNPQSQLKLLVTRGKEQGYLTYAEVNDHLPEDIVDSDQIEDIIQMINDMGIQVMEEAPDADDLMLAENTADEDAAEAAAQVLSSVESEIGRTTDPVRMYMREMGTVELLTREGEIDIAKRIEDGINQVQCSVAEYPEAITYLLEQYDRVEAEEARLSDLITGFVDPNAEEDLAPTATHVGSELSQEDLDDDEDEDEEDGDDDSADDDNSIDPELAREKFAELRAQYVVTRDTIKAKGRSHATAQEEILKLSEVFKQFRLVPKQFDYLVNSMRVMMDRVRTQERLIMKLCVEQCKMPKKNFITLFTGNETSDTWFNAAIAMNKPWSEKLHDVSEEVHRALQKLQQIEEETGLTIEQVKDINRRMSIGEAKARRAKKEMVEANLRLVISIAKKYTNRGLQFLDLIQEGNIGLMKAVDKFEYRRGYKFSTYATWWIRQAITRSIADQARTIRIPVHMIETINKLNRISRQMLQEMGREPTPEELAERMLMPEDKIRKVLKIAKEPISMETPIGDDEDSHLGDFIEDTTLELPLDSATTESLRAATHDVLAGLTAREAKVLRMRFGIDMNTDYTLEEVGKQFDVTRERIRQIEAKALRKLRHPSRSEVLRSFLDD
# E. coli RNA polymerase, sequence (P0A800 whole entry, further chain): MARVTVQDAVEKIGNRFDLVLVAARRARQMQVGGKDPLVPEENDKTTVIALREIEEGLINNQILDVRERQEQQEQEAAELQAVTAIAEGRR
compound,measurement,setting,value
citrocin,susceptibility of strain to peptide,[1],susceptible
same,susceptibility of strain to peptide,[2],susceptible
H17A (GGDGSIAEYFNRPMHIADWQIMDSGYYG; listed as Burkholderia ubonensis),antimicrobial activity of purified ubonodin variants relative to wild-type,[3],near wild-type activity
microcin J25 (GGAGHVPEYFVGIGTPISFYG) [MccJ25],susceptibility of strain to peptide,[1],susceptible
same,susceptibility of strain to peptide,[2],susceptible
CC[C@H](C)[C@@H]1NC(=O)[C@H](CO)NC(=O)CNC(=O)[C@H](CC(=O)O)NC(=O)CNC(=O)CNC(=O)CC[C@@H](C(=O)N[C@@H](Cc2ccc(O)cc2)C(=O)N[C@@H](Cc2ccccc2)C(=O)N[C@@H](CC(N)=O)C(=O)N[C@@H](CCCNC(=N)N)C(=O)N2CCC[C@H]2C(=O)N[C@@H](CCSC)C(=O)N[C@@H](Cc2c[nH]cn2)C(=O)N[C@H](C(=O)N[C@@H](Cc2c[nH]cn2)C(=O)N[C@@H](CC(=O)O)C(=O)N[C@@H](Cc2c[nH]c3ccccc23)C(=O)N[C@@H](CCC(N)=O)C(=O)N[C@H](C(=O)N[C@@H](CCSC)C(=O)N[C@@H](CC(=O)O)C(=O)N[C@@H](CO)C(=O)NCC(=O)N[C@@H](Cc2ccc(O)cc2)C(=O)N[C@@H](Cc2ccc(O)cc2)C(=O)NCC(=O)O)[C@@H](C)CC)[C@@H](C)CC)NC(=O)[C@H](C)NC1=O [ubonodin] (GGDGSIAEYFNRPMHIHDWQIMDSGYYG-OH; lactam N-8; C-terminus assumed),potency in abortive transcription assays relative to MccJ25,[4],somewhat lower than that of MccJ25
same,inhibition of E. coli RNA polymerase (abortive transcription initiation),"[4]; 0, 1, 10 or 100 μM peptide",inhibits transcription initiation; also recorded: able to inhibit E. coli RNAP; also recorded: inhibits E. coli RNA polymerase
same,antimicrobial activity (in words),[5],no activity
same,MIC in M63 agar,[5]; ATCC 10248,>500 µM
same,MIC via liquid growth assay,[6],>31 µM
same,MIC in M63 agar,[7],>500 µM
same,MIC via spot-on-lawn assay,[8],40 µM
same,antimicrobial activity (in words),[9],unable to kill
same,MIC in M63 agar,[9]; serovar newport,>500 µM
same,MIC via spot-on-lawn assay,[10],40 µM
same,thermal degradation by LC-MS,[11],fragments into a variety of different structures; also recorded: major species in this sample is still intact ubonodin
same,MIC via liquid growth assay,[12],>31 µM
same,activity against B. multivorans after heating,[13],maintains its activity; also recorded: loses activity
same,MIC via liquid growth assay,[14],4 µM
same,MIC via liquid growth assay,[15],31 µM
same,MIC in M63 agar,[16],500 µM
same,antimicrobial activity (in words),[17],no activity
same,MIC in M63 agar,[18],>500 µM
same,MIC via spot-on-lawn assay,[19],40 µM
same,MIC in M63 agar,[3],8 µM
same,MIC in M63 agar,[3]; ATCC 17616,7.8 µM
same,antimicrobial activity (in words),[20],unable to kill
same,MIC in M63 agar,[20]; O157:H7,>500 µM
same,MIC in M63 agar,[21],>500 µM
same,MIC via spot-on-lawn assay,[22],20 µM
